This is an account of results in patent US20040102431A1, “Substituted amino-aza-cycloalkanes useful against malaria” (priority 2000, published 2004).

Square brackets hold non-standard residues; d marks the D form. Peptide text beside a SMILES is read from it. * marks the point of attachment. Sta = CC(C)C[C@H](N)[C@@H](O)CC(=O)O; Isovaleryl = CC(C)CC(=O)*

In one assay the test system is P. falciparum. Particulars: cited from earlier work.
The target in the next assay is plasmepsin II (Plasmodium falciparum, UniProt P46925). Description: biochemical. Particulars: Additional Examples table; FRET, pH 5, 37° C., 40 min, substrate 1 μM; read-out: IC50 (nM) on plasmepsin II.
Sequence of plasmepsin II (P46925 125-453): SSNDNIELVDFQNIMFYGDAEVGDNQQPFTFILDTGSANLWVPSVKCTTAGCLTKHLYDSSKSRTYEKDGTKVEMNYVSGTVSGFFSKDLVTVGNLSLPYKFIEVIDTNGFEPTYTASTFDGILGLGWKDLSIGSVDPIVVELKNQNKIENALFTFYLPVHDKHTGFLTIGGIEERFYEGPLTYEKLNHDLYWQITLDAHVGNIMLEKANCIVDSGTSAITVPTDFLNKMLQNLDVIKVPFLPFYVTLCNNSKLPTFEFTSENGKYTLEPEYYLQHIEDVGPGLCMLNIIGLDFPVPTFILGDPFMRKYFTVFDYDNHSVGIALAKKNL

As to `CC(C)CC(=O)N[C@H](C(=O)N[C@H](C(=O)N[C@@H](CC(C)C)[C@@H](O)CC(=O)N[C@@H](C)C(=O)N[C@@H](CC(C)C)[C@@H](O)CC(=O)O)C(C)C)C(C)C` [Pepstatin] (Isovaleryl-VV[Sta]A[Sta]-OH), the “growth of P. falciparum in red blood cells in vitro” value in the assay with P. falciparum is on record as “inhibits the growth”.

In general, IC50 refers to the midpoint of a concentration-inhibition curve. As for `CCCCCc1ccc(C(=O)N(Cc2ccc(-c3ccccc3Cl)cc2)C2CCN(Cc3ccccc3)CC2)cc1` [Example 68, N-(1-Benzylpiperidin-4-yl)-N-(2′-chlorobiphenyl-4-ylmethyl)-4-pentylbenzamide], the IC50 at plasmepsin II was 120 nM.

On to `CCCCCc1ccc(C(=O)N(Cc2ccc(-c3ccc(OC)c(OC)c3)cc2)C2CCN(Cc3ccncc3)CC2)cc1` [Example 41, N-(3′,4′-Dimethoxybiphenyl-4-ylmethyl)-4-pentyl-N-(1-pyridin-4-ylmethylpiperidin-4-yl)benzamide], for which, at plasmepsin II, the IC50 amounted to 25 nM.

For `CCCCCc1ccc(C(=O)N(Cc2ccc(N(CCCC)CCCC)cc2)C2CCN(Cc3ccccc3)CC2)cc1` [Example 115, N-(1-Benzylpiperidin-4-yl)-N-(4-dibutylaminobenzyl)-4-pentyl-benzamide], the IC50 on plasmepsin II stood at 839 nM.

For `CCCCCc1ccc(C(=O)N(Cc2ccc(-c3ccc(F)cc3)cc2)C2CCN(Cc3ccccc3)CC2)cc1` [Example 89, N-(1-Benzylpiperidin-4-yl)-N-(4′-fluorobiphenyl-4-ylmethyl)-4-pentylbenzamide], the IC50 at plasmepsin II is 260 nM.
